Laboratory results published in PubChem BioAssay AID330 (DTP/NCI, 2004).
Values joined by “and” are separate entries in the source; they are usually repeats but may differ in a detail not shown here. Identical values can stand only once. Toxic doses and inconclusive results are not listed. How the source made its calls: active means survival T/C of 150% or more; inactive means T/C below 125% in these data.

Tested on: P388 leukemia ip, CD2F1 mice, survival T/C
Experiment: NCI In Vivo Anticancer Drug Screen. Data for tumor model P388 Leukemia (intraperitoneal) in CD2F1 (CDF1) mice
Conditions: endpoint: median survival time, higher = longer survival
Method in brief: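 Mice carrying the transplanted tumor received test compound or vehicle. Survival was recorded in each group, and the value is the treated-group measurement divided by that of the vehicle-treated control group.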

[1] = dose: 50.0 mg/kg/injection, schedule: Q01DX005 (ip), vehicle: saline with Tween-80
[2] = dose: 100.0 mg/kg/injection, schedule: Q01DX005 (ip), vehicle: saline with Tween-80
[3] = dose: 200.0 mg/kg/injection, schedule: Q01DX005 (ip), vehicle: saline with Tween-80
[4] = dose: 12.5 mg/kg/injection, schedule: Q01DX009 (ip), vehicle: saline with Tween-80
[5] = dose: 25.0 mg/kg/injection, schedule: Q01DX009 (ip), vehicle: saline with Tween-80
[6] = dose: 50.0 mg/kg/injection, schedule: Q01DX009 (ip), vehicle: saline with Tween-80
[7] = dose: 100.0 mg/kg/injection, schedule: Q01DX009 (ip), vehicle: saline with Tween-80
[8] = dose: 200.0 mg/kg/injection, schedule: Q01DX009 (ip), vehicle: saline with Tween-80
[9] = dose: 60.0 mg/kg/injection, schedule: Q01DX005 (ip), vehicle: saline
[10] = dose: 120.0 mg/kg/injection, schedule: Q01DX005 (ip), vehicle: saline
[11] = dose: 240.0 mg/kg/injection, schedule: Q01DX005 (ip), vehicle: saline
[12] = dose: 60.0 mg/kg/injection, schedule: Q01DX005 (ip), vehicle: saline with Tween-80
[13] = dose: 120.0 mg/kg/injection, schedule: Q01DX005 (ip), vehicle: saline with Tween-80
[14] = dose: 50.0 mg/kg/injection, schedule: Q01DX009 (ip), vehicle: Klucel (hydroxypropylcellulose) (HPC)
[15] = dose: 100.0 mg/kg/injection, schedule: Q01DX009 (ip), vehicle: Klucel (hydroxypropylcellulose) (HPC)
[16] = dose: 200.0 mg/kg/injection, schedule: Q01DX009 (ip), vehicle: Klucel (hydroxypropylcellulose) (HPC)
[17] = dose: 25.0 mg/kg/injection, schedule: Q01DX009 (ip), vehicle: water
[18] = dose: 50.0 mg/kg/injection, schedule: Q01DX009 (ip), vehicle: water

Measured: T/C

CN1C(=O)C(CC(=O)O)(Cc2ccccc2)N(C(=O)c2ccccc2)[C@H]1C(C)(C)C (stereo not given in full)
inactive: dose: 100.0 mg/kg/injection, schedule: Q01DX001 (ip), vehicle: saline with Tween-80 112 % of control | dose: 200.0 mg/kg/injection, schedule: Q01DX001 (ip), vehicle: saline with Tween-80 94 % of control | dose: 400.0 mg/kg/injection, schedule: Q01DX001 (ip), vehicle: saline with Tween-80 108 % of control

O=S(=O)(Nc1nccs1)c1ccc(NCc2c3ccccc3nc3ccccc23)cc1
inactive: dose: 100.0 mg/kg/injection, schedule: Q04DX002 (ip), vehicle: Klucel (hydroxypropylcellulose) (HPC) 101 % of control | dose: 200.0 mg/kg/injection, schedule: Q04DX002 (ip), vehicle: Klucel (hydroxypropylcellulose) (HPC) 100 % of control | dose: 400.0 mg/kg/injection, schedule: Q04DX002 (ip), vehicle: Klucel (hydroxypropylcellulose) (HPC) 105 % of control

COc1ccc2c(c1)CCC1=C2CCS1(=O)=O
inactive: [1] 99 % of control | [2] 97 % of control | [3] 103 % of control

CSc1c2c(c(C)c3c1[nH]c1ccccc13)C=NCC2
inactive: dose: 6.25 mg/kg/injection, schedule: Q04DX002 (ip), vehicle: distilled water + Tween-80 102 % of control | dose: 12.5 mg/kg/injection, schedule: Q04DX002 (ip), vehicle: distilled water + Tween-80 89 % of control | dose: 25.0 mg/kg/injection, schedule: Q04DX002 (ip), vehicle: distilled water + Tween-80 98 % of control | dose: 50.0 mg/kg/injection, schedule: Q04DX002 (ip), vehicle: distilled water + Tween-80 88 % of control | dose: 100.0 mg/kg/injection, schedule: Q04DX002 (ip), vehicle: distilled water + Tween-80 88 % of control

CSC(C=P(c1ccccc1)(c1ccccc1)c1ccccc1)=Nc1ccccc1
inactive: dose: 6.25 mg/kg/injection, schedule: Q01DX009 (ip), vehicle: saline with Tween-80 101 % of control | [4] 101 % of control | [5] 102 % of control and 103 % of control

O=C(O)CCCC(O)(O)C(=O)O
inactive: dose: 50.0 mg/kg/injection, schedule: Q01DX005 (ip), vehicle: Klucel (hydroxypropylcellulose) (HPC) 108 % of control | dose: 100.0 mg/kg/injection, schedule: Q01DX005 (ip), vehicle: Klucel (hydroxypropylcellulose) (HPC) 94 % of control | dose: 200.0 mg/kg/injection, schedule: Q01DX005 (ip), vehicle: Klucel (hydroxypropylcellulose) (HPC) 96 % of control

CCOC(=O)c1c(C(=O)Nc2ccccc2)c(-c2ccccc2)n(NC(N)=O)c1C
inactive: [1] 104 % of control | [2] 105 % of control | [3] 98 % of control

CCOC(=O)c1c[nH]c(=S)n(CCOC)c1=O
inactive: [5] 92 % of control | [6] 108 % of control | [7] 115 % of control

COCCCC12C=C(OC)C(=O)C=C1OC(c1cc(OC)c(OC)c(OC)c1)C2C (stereo not given)
inactive: dose: 8.75 mg/kg/injection, schedule: Q01DX005 (ip), vehicle: Klucel (hydroxypropylcellulose) (HPC) 100 % of control | dose: 17.5 mg/kg/injection, schedule: Q01DX005 (ip), vehicle: Klucel (hydroxypropylcellulose) (HPC) 106 % of control | dose: 35.0 mg/kg/injection, schedule: Q01DX005 (ip), vehicle: Klucel (hydroxypropylcellulose) (HPC) 96 % of control

C=C(C)C(=O)OC1CCC2(C)C(CCC3C2CCC2(C)C(c4ccc(=O)oc4)CC4OC432)C1 (stereo not given)
inactive: dose: 1.25 mg/kg/injection, schedule: Q01DX009 (ip), vehicle: saline with Tween-80 98 % of control | dose: 2.5 mg/kg/injection, schedule: Q01DX009 (ip), vehicle: saline with Tween-80 100 % of control | dose: 5.0 mg/kg/injection, schedule: Q01DX009 (ip), vehicle: saline with Tween-80 122 % of control | dose: 10.0 mg/kg/injection, schedule: Q01DX009 (ip), vehicle: saline with Tween-80 106 % of control | dose: 20.0 mg/kg/injection, schedule: Q01DX009 (ip), vehicle: saline with Tween-80 100 % of control

O=P1(O)CC2=C(CC=CC2)C1
inactive: [6] 98 % of control | [7] 89 % of control | [8] 98 % of control

CC(C)[Si]1(C(C)C)N([Si](C)(C)F)[Si](C(C)C)(C(C)C)N1[Si](C)(C)F
inactive: [9] 97 % of control | [10] 87 % of control | [11] 100 % of control

CC(C)(C)N1OC1C(Cl)(Cl)Cl (stereo not given)
inactive: [12] 101 % of control | [13] 104 % of control | dose: 240.0 mg/kg/injection, schedule: Q01DX005 (ip), vehicle: saline with Tween-80 104 % of control

O=C(N/C(=C\c1ccccc1)C(=O)N1CCNCC1)c1ccccc1
inactive: [1] 93 % of control | [2] 89 % of control | [3] 87 % of control

CC(=O)Nc1nnc(SSc2nnc(NC(C)=O)s2)s1
inactive: [14] 90 % of control | [15] 102 % of control | [16] 94 % of control

CCOC(=O)NNCC(=O)O
inactive: dose: 12.5 mg/kg/injection, schedule: Q01DX009 (ip), vehicle: water 104 % of control | [17] 105 % of control | [18] 101 % of control | dose: 100.0 mg/kg/injection, schedule: Q01DX009 (ip), vehicle: water 94 % of control | dose: 200.0 mg/kg/injection, schedule: Q01DX009 (ip), vehicle: water 98 % of control

C/C(=N\NC(=S)N1CCC(N2CCCCC2)CC1)c1ccccn1
inactive: dose: 6.25 mg/kg/injection, schedule: Q01DX005 (ip), vehicle: saline with Tween-80 112 % of control | dose: 12.5 mg/kg/injection, schedule: Q01DX005 (ip), vehicle: saline with Tween-80 113 % of control

CCOC(=O)c1ccc(NC(=O)Nc2nc3cc(C)c(C)cc3s2)cc1
inactive: [6] 99 % of control | [7] 95 % of control | [8] 93 % of control

COc1cccc(/C=C2\CCc3ccccc3C2=O)c1OC
inactive: [14] 119 % of control | [15] 106 % of control | [16] 110 % of control

Cc1cc(C)c([N+](=O)[O-])c([N+](=O)[O-])c1C
inactive: [6] 101 % of control | [7] 106 % of control | [8] 102 % of control

O=C(N=Cc1ccco1)C(=O)Nc1ccc(Cl)c([N+](=O)[O-])c1
inactive: [6] 100 % of control | [7] 91 % of control | [8] 96 % of control

Clc1ccc(Cc2nc3ccccc3s2)cc1
inactive: [12] 106 % of control | [13] 121 % of control

Nc1nn(-c2cccc(C(F)(F)F)c2)c2cccc[n+]12
inactive: [4] 100 % of control | [5] 105 % of control | [17] 111 % of control | [6] 100 % of control | [18] 106 % of control

Cc1cc(Nc2ccc(C(=O)N/N=C/c3ccc(N(CCCl)CCCl)cc3)cc2)nc2ccc(Cl)cc12
inactive: dose: 50.0 mg/kg/injection, schedule: Q01DX009 (ip), vehicle: saline 90 % of control | dose: 100.0 mg/kg/injection, schedule: Q01DX009 (ip), vehicle: saline 91 % of control | dose: 200.0 mg/kg/injection, schedule: Q01DX009 (ip), vehicle: saline 87 % of control

FP1(c2ccccc2)(c2ccccc2)Nc2cc(C(c3ccccc3)(c3ccccc3)c3ccccc3)ccc2O1
inactive: [4] 104 % of control | [5] 98 % of control | [6] 92 % of control | [8] 95 % of control

CCOC(CC#CC(=O)N(C)C)OCC
inactive: [9] 100 % of control | [10] 107 % of control | [11] 101 % of control
